By IC50 is commonly meant the midpoint of a concentration-inhibition curve. A higher IC50 goes with lower potency. For orientation: inhibition means the share of the control response that was lost under treatment.

This passage reports IC50 and inhibition results from ChEMBL document CHEMBL1770074, “Syntheses and characterization of novel oxoisoaporphine derivatives as dual inhibitors for cholinesterases and amyloid beta aggregation” (Eur J Med Chem, 2011).

The test system of test [1] is SH-SY5Y. Description: cells. The conditions noted are these: Homo sapiens, 48 h.
Description: Cytotoxicity against human SH-SY5Y cells assessed as cell viability after 48 hrs by MTT assay
Test [2] has as its target Acetylcholinesterase (Electrophorus electricus, UniProt O42275).
Description: Inhibition of electric eel AChE by Ellman's method
Test [3] in a line: Inhibition of amyloid beta (1 to 42) aggregation assessed as inhibition of fibril formation at 10 uM by thioflavin-T fluorescent dye assay.
In test [4] the target is Cholinesterase (Equus caballus, UniProt P81908).
Cholinesterase, sequence (P81908 whole entry): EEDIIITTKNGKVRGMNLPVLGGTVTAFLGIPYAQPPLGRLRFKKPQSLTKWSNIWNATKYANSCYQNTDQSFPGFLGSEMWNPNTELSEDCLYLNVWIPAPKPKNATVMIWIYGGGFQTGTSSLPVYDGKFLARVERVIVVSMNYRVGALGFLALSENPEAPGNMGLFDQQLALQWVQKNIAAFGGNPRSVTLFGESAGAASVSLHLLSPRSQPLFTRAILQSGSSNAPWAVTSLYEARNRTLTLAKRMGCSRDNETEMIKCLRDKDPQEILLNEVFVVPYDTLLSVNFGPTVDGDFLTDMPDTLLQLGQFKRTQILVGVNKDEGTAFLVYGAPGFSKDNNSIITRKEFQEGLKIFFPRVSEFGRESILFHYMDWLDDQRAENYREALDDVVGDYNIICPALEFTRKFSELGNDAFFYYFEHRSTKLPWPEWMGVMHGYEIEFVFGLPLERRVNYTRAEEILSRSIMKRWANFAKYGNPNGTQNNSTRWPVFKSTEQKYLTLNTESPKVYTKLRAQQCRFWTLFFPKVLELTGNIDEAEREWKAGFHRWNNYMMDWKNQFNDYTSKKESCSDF
Description: Inhibition of equine serum BChE by Ellman's method

Acetylcholinesterase, sequence (O42275 whole entry): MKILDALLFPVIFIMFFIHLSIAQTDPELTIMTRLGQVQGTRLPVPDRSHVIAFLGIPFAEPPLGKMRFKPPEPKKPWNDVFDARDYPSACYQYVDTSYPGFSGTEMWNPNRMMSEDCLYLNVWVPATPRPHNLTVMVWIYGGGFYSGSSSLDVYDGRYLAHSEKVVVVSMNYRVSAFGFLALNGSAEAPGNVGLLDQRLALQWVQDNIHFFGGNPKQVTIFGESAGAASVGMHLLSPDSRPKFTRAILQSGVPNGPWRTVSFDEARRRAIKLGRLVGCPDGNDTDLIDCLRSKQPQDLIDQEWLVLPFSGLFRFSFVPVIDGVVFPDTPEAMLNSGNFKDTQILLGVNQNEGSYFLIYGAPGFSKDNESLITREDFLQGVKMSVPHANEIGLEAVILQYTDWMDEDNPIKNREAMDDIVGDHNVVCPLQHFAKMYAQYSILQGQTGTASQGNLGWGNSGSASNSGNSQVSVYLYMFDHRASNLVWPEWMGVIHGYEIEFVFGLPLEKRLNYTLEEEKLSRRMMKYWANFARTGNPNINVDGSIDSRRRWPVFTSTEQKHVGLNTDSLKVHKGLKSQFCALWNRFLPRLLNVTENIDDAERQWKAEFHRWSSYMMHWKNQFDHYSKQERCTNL

Turning to `C[N+]1(CCOc2cnc3c4c(cccc24)C(=O)c2ccccc2-3)CCCCC1`, the IC50 is above 25000 nM in test [1], 95 nM in test [2] and 255 nM in test [4]. Further, the inhibition in test [3] amounted to 50.9%.
As to `CN1CCN(CCCOc2ccc3c4c(nccc24)-c2ccccc2C3=O)CC1`, the IC50 was above 25000 nM in test [1], 405 nM in test [2] and 5500 nM in test [4]. For the same compound, in test [3], the inhibition worked out at 33.6%.
The like results for `CCN(CC)CCOc1cnc2c3c(cccc13)C(=O)c1ccccc1-2` were, in that order, 9210 nM, 700 nM, 1490 nM and 3.88%.
For the compound `C[N+](C)(C)CCC(=O)Nc1ccc2c(c1)C(=O)c1cccc3ccnc-2c13`, in test [1], the IC50 is above 25000 nM. The inhibition in test [3] was determined as 80.1%.
Turning to `CC[N+](C)(CC)CCC(=O)Nc1ccc2c(c1)C(=O)c1cccc3ccnc-2c13`, the IC50 in test [1] is above 25000 nM. In addition, the inhibition in test [3] was 82.7%.
In the case of `CN(C)CCCNc1ccc2c3c(nccc13)-c1ccccc1C2=O`, the figures for the IC50 in test [1], in test [2] and in test [4] were above 25000 nM, 398 nM and 3350 nM, respectively. In addition, the inhibition in test [3] stood at 57.6%.
Take `O=C(CCN1CCCC1)Nc1ccc2c(c1)C(=O)c1cccc3ccnc-2c13`: in test [1], the IC50 is 4570 nM. Further, in test [3], the inhibition worked out at 69.8%.
On to `CCN(CC)CCC(=O)Nc1ccc2c(c1)C(=O)c1cccc3ccnc-2c13`, for which, in test [1], the IC50 came out at 3940 nM. Besides, the inhibition in test [3] amounted to 62.5%.
In turn, `C[N+]1(CCC(=O)Nc2ccc3c(c2)C(=O)c2cccc4ccnc-3c24)CCCC1` showed a half-maximal inhibitory concentration (IC50) in test [1] of 2120 nM. Besides, the inhibition in test [3] was 85.9%.
`O=C1c2ccccc2-c2nccc3c(OCCN4CCCCC4)ccc1c23`: the IC50 in test [1] is above 25000 nM; in test [2], 88 nM; in test [4] it was 2210 nM. Also, in test [3], the inhibition is 38.9%.
Take `O=C1c2ccccc2-c2ncc(OCCN3CCCCC3)c3cccc1c23`: the half-inhibitory concentration (IC50) was above 25000 nM in test [1], 375 nM in test [2] and 723 nM in test [4]. Further, the inhibition in test [3] is 34.2%.
Regarding `CCN(CC)CCOc1ccc2c3c(nccc13)-c1ccccc1C2=O`, the IC50 in test [1] is above 25000 nM; in test [2], 201 nM; in test [4] it was 3070 nM. In test [3], the inhibition came to 10.7%.
As for `O=C1c2ccccc2-c2nccc3c(OCCCN4CCCCC4)ccc1c23`, the IC50 was above 25000 nM in test [1], 22 nM in test [2] and 905 nM in test [4]. In test [3], the inhibition amounted to 40.1%.
For the compound `C[N+]1(CCOc2cnc3c4c(cccc24)C(=O)c2ccccc2-3)CCCC1`, the IC50 in test [1] was above 25000 nM; in test [2], 145 nM; in test [4] it was 302 nM. In addition, in test [3], the inhibition came to 48.8%.
As for `CN1CCN(CCOc2ccc3c4c(nccc24)-c2ccccc2C3=O)CC1`, the values for the IC50 in test [1], in test [2] and in test [4] were above 25000 nM, 432 nM and 2750 nM, respectively. Besides, in test [3], the inhibition came out at 43%.
Take `CN(C)CCCC(=O)Nc1ccc2c(c1)C(=O)c1cccc3ccnc-2c13`: inhibition in test [1] was half-maximal at 3270 nM (IC50). Besides, in test [3], the inhibition stood at 65.2%.
Turning to `C[N+](C)(C)CCOc1cnc2c3c(cccc13)C(=O)c1ccccc1-2`, the values for the IC50 in test [1], in test [2] and in test [4] were above 25000 nM, 933 nM and 972 nM, respectively. Moreover, the inhibition in test [3] came out at 42%.
Regarding `CCN(CC)CCCOc1ccc2c3c(nccc13)-c1ccccc1C2=O`, the figures for the half-inhibitory concentration (IC50) in test [1], in test [2] and in test [4] were above 25000 nM, 34.3 nM and 2700 nM, respectively. Besides, the inhibition in test [3] is 14%.
Regarding `CN(C)CCC(=O)Nc1ccc2c(c1)C(=O)c1cccc3ccnc-2c13`, the midpoint of inhibition in test [1], the IC50, lay at 4140 nM. The inhibition in test [3] is 69.8%.
`CC[N+](C)(CC)CCOc1cnc2c3c(cccc13)C(=O)c1ccccc1-2`: the results for the IC50 in test [1], in test [2] and in test [4] were above 25000 nM, 258 nM and 708 nM, respectively. The inhibition in test [3] was found to be 45.5%.
In the case of `C[N+]1(CC(=O)Nc2ccc3c(c2)C(=O)c2cccc4ccnc-3c24)CCCC1`, the IC50 in test [1] was above 25000 nM. For the same compound, the inhibition in test [3] was found to be 52%.
Turning to `CN(C)CCOc1cnc2c3c(cccc13)C(=O)c1ccccc1-2`, the IC50 was determined as 16200 nM in test [1], 1560 nM in test [2] and 1640 nM in test [4]. In addition, the inhibition in test [3] was found to be 14.3%.
For `C[N+](C)(C)CCCC(=O)Nc1ccc2c(c1)C(=O)c1cccc3ccnc-2c13`, the IC50 in test [1] was above 25000 nM. Also, in test [3], the inhibition was determined as 58.6%.
With `O=C1c2ccccc2-c2ncc(OCCN3CCCC3)c3cccc1c23`, the results for the IC50 in test [1], in test [2] and in test [4] were 12000 nM, 471 nM and 790 nM, respectively. Moreover, in test [3], the inhibition is 31.8%.
For the compound `O=C(CN1CCCC1)Nc1ccc2c(c1)C(=O)c1cccc3ccnc-2c13`, in test [1], the IC50 was determined as 5370 nM. In addition, in test [3], the inhibition worked out at 45.4%.
As for `COc1cc(/C=C/C(=O)CC(=O)/C=C/c2ccc(O)c(OC)c2)ccc1O`, in test [3], the inhibition amounted to 33.3%.
